According to ChEMBL document CHEMBL1201862, “PubChem BioAssay data set” (2004):
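Five compound concentrations were applied to cells in 96-well plates for 48 hours; endpoints were derived by simple linear interpolation of the resulting dose-response curve. GI50 marks 50% less growth.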 The source made the active and inactive calls. Rule as the data show it: active = GI50 up to about 1.1 µM and inactive = higher.

Legend:
Test in all cases: NCI tumour cell line growth inhibition, 48 h
[1] = test system: 786-0
[2] = test system: A498
[3] = test system: A549
[4] = test system: ACHN
[5] = test system: CAKI-1
[6] = test system: CCRF-CEM
[7] = test system: COLO 205
[8] = test system: DLD-1
[9] = test system: DMS-114
[10] = test system: DMS-273
[11] = test system: EKVX
[12] = test system: HCC 2998
[13] = test system: HCT-116
[14] = test system: HCT-15
[15] = test system: HL-60
[16] = test system: HOP-18
[17] = test system: HOP-62
[18] = test system: HOP-92
[19] = test system: HT-29
[20] = test system: IGROV-1
[21] = test system: K562
[22] = test system: KM-20L2
[23] = test system: KM12
[24] = test system: LOX IMVI
[25] = test system: LXFL 529
[26] = test system: M14
[27] = test system: M19-MEL
[28] = test system: MOLT-4
[29] = test system: Malme-3M
[30] = test system: NCI-H226
[31] = test system: NCI-H23
[32] = test system: NCI-H460
[33] = test system: OVCAR-3
[34] = test system: OVCAR-4
[35] = test system: OVCAR-5
[36] = test system: OVCAR-8
[37] = test system: RPMI-8226
[38] = test system: RXF 631
[39] = test system: SF-295
[40] = test system: SF-539
[41] = test system: SK-MEL-28
[42] = test system: SK-MEL-2
[43] = test system: SK-MEL-5
[44] = test system: SK-OV-3
[45] = test system: SN12C
[46] = test system: SNB-19
[47] = test system: SNB-75
[48] = test system: SNB-78
[49] = test system: SR
[50] = test system: SW-620
[51] = test system: TK-10
[52] = test system: U-251
[53] = test system: UACC-257
[54] = test system: UACC-62
[55] = test system: UO-31
[56] = test system: XF498
[57] = test system: NCI-H522
[58] = test system: RXF 393
[59] = test system: SF-268

Measured: GI50

CCOC(=O)NC(=O)c1c[nH]c(=O)[nH]c1=O
inactive: [1] > 100 µM | [2] > 100 µM | [3] > 100 µM | [4] > 100 µM | [5] > 100 µM | [6] > 100 µM | [7] > 100 µM | [8] > 100 µM | [9] > 100 µM | [10] > 100 µM | [11] > 100 µM | [12] > 100 µM | [13] > 100 µM | [15] > 100 µM | [16] > 100 µM | [17] > 100 µM | [18] > 100 µM | [19] > 100 µM | [20] > 100 µM | [21] > 100 µM | [22] > 100 µM | [23] > 100 µM | [24] > 100 µM | [25] > 100 µM | [26] > 100 µM | [27] > 100 µM | [28] > 100 µM | [29] > 100 µM | [30] > 100 µM | [31] > 100 µM | [32] > 100 µM | [33] > 100 µM | [34] > 100 µM | [35] > 100 µM | [36] > 100 µM | [37] > 100 µM | [38] > 100 µM | [39] > 100 µM | [40] > 100 µM | [41] > 100 µM | [42] > 100 µM | [43] > 100 µM | [44] > 100 µM | [45] > 100 µM | [46] > 100 µM | [47] > 100 µM | [48] > 100 µM | [49] > 100 µM | [50] > 100 µM | [51] > 100 µM | [52] > 100 µM | [53] > 100 µM | [54] > 100 µM | [55] > 100 µM | [56] > 100 µM
> 100 µM: [14]

CC[C@H](C)[C@H]1NC(=O)C(C(C)=O)=C1O
79.8 µM: [14]
inactive: [1] 98.6 µM | [2] > 100 µM | [3] > 100 µM | [4] > 100 µM | [5] > 100 µM | [6] 52.2 µM | [7] > 100 µM | [8] 70.3 µM | [9] 76.7 µM | [10] > 100 µM | [11] > 100 µM | [12] 54 µM | [13] 51.9 µM | [15] 99.8 µM | [16] 58.1 µM | [17] > 100 µM | [18] > 100 µM | [19] > 100 µM | [20] > 100 µM | [21] > 100 µM | [22] > 100 µM | [23] 96.4 µM | [24] 62.4 µM | [25] 66.5 µM | [26] > 100 µM | [27] 71.3 µM | [28] > 100 µM | [29] > 100 µM | [30] > 100 µM | [31] > 100 µM | [32] 80 µM | [57] 88.5 µM | [33] 72.9 µM | [34] 95.9 µM | [35] > 100 µM | [36] > 100 µM | [58] 23.3 µM | [38] 92.5 µM | [59] 55.2 µM | [39] > 100 µM | [40] > 100 µM | [41] 64 µM | [42] 95.3 µM | [43] 98.9 µM | [45] 83.6 µM | [46] 78.3 µM | [47] 91.2 µM | [48] > 100 µM | [49] 58.3 µM | [50] 21.4 µM | [51] > 100 µM | [52] 52.7 µM | [53] 51.6 µM | [54] 97.5 µM | [55] > 100 µM | [56] > 100 µM

CCOc1ccc2nc(NC(=O)c3c/c(=N\NC(=O)C[N+](C)(C)C)c4ccc(O)cc4o3)sc2c1
inactive: [1] 3.62 µM | [2] 14.6 µM | [3] 2.76 µM | [4] 4.52 µM | [5] 6.04 µM | [6] 1.6 µM | [7] 1.63 µM | [8] 2.52 µM | [9] 1.91 µM | [10] 3.34 µM | [11] 4.44 µM | [12] 7.53 µM | [13] 3.4 µM | [15] 1.59 µM | [16] 2.06 µM | [18] 1.72 µM | [19] 3.56 µM | [20] 2.65 µM | [21] 1.92 µM | [22] 3.21 µM | [23] 5.28 µM | [24] 1.14 µM | [25] 2.02 µM | [26] 1.63 µM | [28] 1.72 µM | [29] 1.28 µM | [30] 3.25 µM | [31] 1.59 µM | [32] 3.04 µM | [57] 1.95 µM | [34] 1.74 µM | [35] 3.37 µM | [36] 2.14 µM | [37] 2.15 µM | [58] 5.87 µM | [38] 6.03 µM | [59] 3.29 µM | [39] 3.38 µM | [40] 3.85 µM | [41] 5.75 µM | [42] 2.43 µM | [44] 11.3 µM | [45] 3.55 µM | [46] 5.65 µM | [47] 1.52 µM | [48] 5 µM | [49] 3.05 µM | [50] 2.19 µM | [51] 21.7 µM | [52] 2.89 µM | [53] 1.49 µM | [54] 1.65 µM | [55] 11.8 µM | [56] 2.83 µM
active: [27] 0.294 µM | [33] 0.13 µM | [43] 0.555 µM
5.93 µM: [14]
